Results from ChEMBL document CHEMBL2163253, “Identification and preliminary characterization of a potent, safe, and orally efficacious inhibitor of acyl-CoA:diacylglycerol acyltransferase 1” (J Med Chem, 2012).
Activity calls are given as the source filed them. The calls are words filed in the database; no cut-off is given here.

How the values were obtained:
[1] = Stability in human liver microsomes assessed as parent compound remaining measured after 60 mins; assay type: ADME, Microsome; details: read-out: Stability
[2] = target: T1, Diacylglycerol O-acyltransferase 1 (Homo sapiens, UniProt O75907); test: biochemical
T1 sequence (O75907 whole entry): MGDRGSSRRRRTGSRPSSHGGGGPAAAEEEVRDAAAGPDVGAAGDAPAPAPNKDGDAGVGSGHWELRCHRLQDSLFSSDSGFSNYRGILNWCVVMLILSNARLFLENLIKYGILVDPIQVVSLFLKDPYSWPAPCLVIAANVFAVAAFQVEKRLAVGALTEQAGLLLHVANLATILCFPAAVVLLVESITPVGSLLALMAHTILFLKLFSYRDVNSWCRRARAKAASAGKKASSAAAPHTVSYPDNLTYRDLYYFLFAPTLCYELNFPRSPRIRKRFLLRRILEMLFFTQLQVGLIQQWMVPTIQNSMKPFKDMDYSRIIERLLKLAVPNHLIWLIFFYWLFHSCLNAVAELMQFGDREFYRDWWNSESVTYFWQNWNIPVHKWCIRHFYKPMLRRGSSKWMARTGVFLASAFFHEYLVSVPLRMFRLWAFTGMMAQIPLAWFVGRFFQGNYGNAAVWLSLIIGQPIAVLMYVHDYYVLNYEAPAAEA
Description: Inhibition of N-terminal His6-tagged human recombinant DGAT1 expressed in insect cell membrane using [1-14C]decanoyl-CoA substrate by phospholipid flash plate assay

[3] = Terminal half life in mouse at 10 mg/kg, iv administered as single dose; assay type: ADME, organism-based; parameters: dose 10 mg/kg, route intravenous; details: in vivo, read-out: beta t1/2 (converted)
[4] = target: T1, Diacylglycerol O-acyltransferase 1; test: Inhibition of human DGAT1 expressed in human HeLa cells assessed as reduction in triglyceride synthesis; assay type: cell-based
[5] = Plasma concentration in CD1 mouse postprandial hyperlipidemia model at 0.03 mg/kg, po administered as single dose 1 hr before oral corn oil bolus challenge and measured after 2 hrs; assay type: ADME, organism-based; parameters: dose 0.03 mg/kg, route oral
[6] = Efflux ratio in human Caco2 cells at 0.5 uM at pH 7.4; assay type: ADME, cell-based; details: Caco-2, pH 7.4
[7] = Toxicity in dog Purkinje fibers assessed as prolongation of APD90 by Purkinje fibers repolarization assay; assay type: tissue-based, Canis lupus familiaris, Purkinje fiber; details: in vitro
[8] = Oral bioavailability in rat at 5 mg/kg administered as single dose; assay type: ADME, organism-based; details: in vivo
Mus musculus [9] = test: Reduction in serum triglyceride level in CD1 mouse postprandial hyperlipidemia model at 3 mg/kg, po administered as single dose 1 hr before oral corn oil bolus challenge and measured after 2 hrs; assay type: functional; parameters: scale not given: the % may be the effect or the level left
[10] = Terminal half life in rat at 5 mg/kg, iv administered as single dose; assay type: ADME, organism-based; parameters: dose 5 mg/kg, route intravenous; details: in vivo, read-out: beta t1/2 (converted)
[11] = Permeability in human Caco2 cells at 0.5 uM at pH 7.4; assay type: ADME, cell-based; details: Caco-2, pH 7.4, read-out: permeability
[12] = AUC in mouse at 10 mg/kg, po administered as single dose; assay type: ADME, organism-based; parameters: dose 10 mg/kg, route oral; details: plasma
Rattus norvegicus [13] = test: Toxicity in female rat assessed as toxicity symptoms at terminal compound concentration dosed orally for 2 weeks; assay type: organism-based; details: in vivo, po, 336 h
[14] = Cmax in dog; assay type: ADME, organism-based, Canis lupus familiaris; details: plasma
[15] = target: T2, Diacylglycerol O-acyltransferase 1 (Mus musculus, UniProt Q9Z2A7); test: Inhibition of mouse DGAT1 using [1-14C]decanoyl-CoA substrate by phospholipid flash plate assay
T2 sequence (Q9Z2A7 whole entry): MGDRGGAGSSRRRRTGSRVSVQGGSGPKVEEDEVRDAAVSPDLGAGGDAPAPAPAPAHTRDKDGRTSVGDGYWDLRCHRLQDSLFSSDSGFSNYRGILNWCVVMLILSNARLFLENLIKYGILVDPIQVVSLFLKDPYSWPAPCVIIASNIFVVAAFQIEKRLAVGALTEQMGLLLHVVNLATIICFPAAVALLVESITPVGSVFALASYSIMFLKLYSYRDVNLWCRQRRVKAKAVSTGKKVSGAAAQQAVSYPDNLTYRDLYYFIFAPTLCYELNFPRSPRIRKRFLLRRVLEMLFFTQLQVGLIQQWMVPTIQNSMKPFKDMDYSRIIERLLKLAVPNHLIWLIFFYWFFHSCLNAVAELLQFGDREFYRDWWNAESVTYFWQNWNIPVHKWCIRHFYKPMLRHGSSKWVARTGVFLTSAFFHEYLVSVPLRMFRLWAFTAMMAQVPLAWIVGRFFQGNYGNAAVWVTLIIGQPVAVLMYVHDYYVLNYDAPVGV

[16] = Terminal half life in rat at 5 mg/kg, po administered as single dose; assay type: ADME, organism-based; parameters: dose 5 mg/kg, route oral; details: in vivo, read-out: beta t1/2 (converted)
Mustela putorius furo = organism: Mustela putorius furo; test: Toxicity in ferret assessed as induction of emesis; assay type: organism-based; details: in vivo
Mus musculus [17] = test: Reduction in serum triglyceride level in overnight fasted DIO mouse model at 0.3 mg/kg, po administered as single dose 1 hr before and for 5 hrs after oral corn oil bolus challenge; assay type: functional, organism-based; parameters: dose 0.3 mg/kg
Canis familiaris [18] = test: Toxicity in dog assessed as toxicity symptoms at terminal compound concentration dosed orally for 2 weeks; assay type: organism-based, Canis lupus familiaris; details: in vivo, po, 336 h
[19] = Stability in mouse liver microsomes assessed as parent compound remaining measured after 60 mins; assay type: ADME, Microsome; details: read-out: Stability
[20] = Oral bioavailability in mouse at 10 mg/kg administered as single dose; assay type: ADME, organism-based; details: in vivo
[21] = target: Voltage-gated inwardly rectifying potassium channel KCNH2 (Homo sapiens, UniProt Q12809); test: Inhibition of human ERG by manual patch clamp assay
[22] = target: T3, Diacylglycerol O-acyltransferase 2 (Homo sapiens, UniProt Q96PD7); test: Inhibition of human recombinant DGAT2 expressed in insect cell membrane using [1-14C]decanoyl-CoA substrate by phospholipid flash plate assay
T3 sequence (Q96PD7 whole entry): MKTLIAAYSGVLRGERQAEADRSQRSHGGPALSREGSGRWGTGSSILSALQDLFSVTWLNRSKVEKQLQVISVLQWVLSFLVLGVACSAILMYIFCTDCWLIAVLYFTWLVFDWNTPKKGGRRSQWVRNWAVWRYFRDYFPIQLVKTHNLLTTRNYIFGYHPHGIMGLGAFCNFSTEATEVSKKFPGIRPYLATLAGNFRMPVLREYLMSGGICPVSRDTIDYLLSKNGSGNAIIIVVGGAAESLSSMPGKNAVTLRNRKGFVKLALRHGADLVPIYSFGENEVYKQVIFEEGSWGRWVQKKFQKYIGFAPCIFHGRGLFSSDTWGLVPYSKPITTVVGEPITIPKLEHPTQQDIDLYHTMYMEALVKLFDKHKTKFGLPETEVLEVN

[23] = Plasma clearance in mouse at 10 mg/kg, iv administered as single dose; assay type: ADME, organism-based; parameters: dose 10 mg/kg, route intravenous
Mus musculus [24] = test: Reduction in serum triglyceride level in CD1 mouse postprandial hyperlipidemia model administered orally as single dose 1 hr before oral corn oil bolus challenge and measured after 2 hrs; assay type: functional, organism-based
[25] = Plasma concentration in CD1 mouse postprandial hyperlipidemia model at 3 mg/kg, po administered as single dose 1 hr before oral corn oil bolus challenge and measured after 2 hrs; assay type: ADME, organism-based; parameters: dose 3 mg/kg, route oral
Canis familiaris [26] = organism: Canis familiaris; test: Toxicity in dog assessed as incidence of hemodynamic effect measured at highest compound concentration; assay type: organism-based, Canis lupus familiaris; details: in vivo
[27] = Volume of distribution at steady state in mouse at 10 mg/kg, iv administered as single dose; assay type: ADME, organism-based; parameters: dose 10 mg/kg, route intravenous; details: in vivo, read-out: Vdss
Mus musculus [28] = test: Reduction in serum triglyceride level in CD1 mouse postprandial hyperlipidemia model at 0.03 mg/kg, po administered as single dose 1 hr before oral corn oil bolus challenge and measured after 2 hrs; assay type: functional; parameters: scale not given: the % may be the effect or the level left
Canis familiaris [29] = test: AUC in dog dosed orally for 2 weeks assessed as terminal exposure; details: in vivo, po, 336 h
[30] = Cmax in rat at 5 mg/kg, po administered as single dose; assay type: ADME, organism-based; parameters: dose 5 mg/kg, route oral; details: in vivo
Rattus norvegicus [31] = organism: Rattus norvegicus; test: Toxicity in rat assessed as changes in gastrointestinal transit measured at highest compound concentration; assay type: organism-based; details: in vivo
[32] = AUC in rat at 5 mg/kg, po administered as single dose; assay type: ADME, organism-based; parameters: dose 5 mg/kg, route oral; details: plasma
[33] = Cmax in rat; assay type: ADME, organism-based; details: plasma
[34] = Efflux ratio in human Caco2 cells at 5 uM at pH 7.4; assay type: ADME, cell-based; details: Caco-2, pH 7.4
[35] = Cmax in mouse at 10 mg/kg, po administered as single dose; assay type: ADME, organism-based; parameters: dose 10 mg/kg, route oral; details: in vivo
[36] = Plasma concentration in CD1 mouse postprandial hyperlipidemia model at 0.3 mg/kg, po administered as single dose 1 hr before oral corn oil bolus challenge and measured after 2 hrs; assay type: ADME, organism-based; parameters: dose 0.3 mg/kg, route oral
Rattus norvegicus [37] = test: AUC in female rat dosed orally for 2 weeks assessed as terminal exposure; details: in vivo, po, 336 h
Mus musculus [38] = test: Reduction in serum triglyceride level in CD1 mouse postprandial hyperlipidemia model at 0.3 mg/kg, po administered as single dose 1 hr before oral corn oil bolus challenge and measured after 2 hrs; assay type: functional; parameters: scale not given: the % may be the effect or the level left
[39] = Volume of distribution at steady state in rat at 5 mg/kg, iv administered as single dose; assay type: ADME, organism-based; parameters: dose 5 mg/kg, route intravenous; details: in vivo, read-out: Vdss
[40] = Plasma clearance in rat at 5 mg/kg, iv administered as single dose; assay type: ADME, organism-based; parameters: dose 5 mg/kg, route intravenous
[41] = Terminal half life in mouse at 10 mg/kg, po administered as single dose; assay type: ADME, organism-based; parameters: dose 10 mg/kg, route oral; details: in vivo, read-out: beta t1/2 (converted)

Voltage-gated inwardly rectifying potassium channel KCNH2, sequence (Q12809 whole entry): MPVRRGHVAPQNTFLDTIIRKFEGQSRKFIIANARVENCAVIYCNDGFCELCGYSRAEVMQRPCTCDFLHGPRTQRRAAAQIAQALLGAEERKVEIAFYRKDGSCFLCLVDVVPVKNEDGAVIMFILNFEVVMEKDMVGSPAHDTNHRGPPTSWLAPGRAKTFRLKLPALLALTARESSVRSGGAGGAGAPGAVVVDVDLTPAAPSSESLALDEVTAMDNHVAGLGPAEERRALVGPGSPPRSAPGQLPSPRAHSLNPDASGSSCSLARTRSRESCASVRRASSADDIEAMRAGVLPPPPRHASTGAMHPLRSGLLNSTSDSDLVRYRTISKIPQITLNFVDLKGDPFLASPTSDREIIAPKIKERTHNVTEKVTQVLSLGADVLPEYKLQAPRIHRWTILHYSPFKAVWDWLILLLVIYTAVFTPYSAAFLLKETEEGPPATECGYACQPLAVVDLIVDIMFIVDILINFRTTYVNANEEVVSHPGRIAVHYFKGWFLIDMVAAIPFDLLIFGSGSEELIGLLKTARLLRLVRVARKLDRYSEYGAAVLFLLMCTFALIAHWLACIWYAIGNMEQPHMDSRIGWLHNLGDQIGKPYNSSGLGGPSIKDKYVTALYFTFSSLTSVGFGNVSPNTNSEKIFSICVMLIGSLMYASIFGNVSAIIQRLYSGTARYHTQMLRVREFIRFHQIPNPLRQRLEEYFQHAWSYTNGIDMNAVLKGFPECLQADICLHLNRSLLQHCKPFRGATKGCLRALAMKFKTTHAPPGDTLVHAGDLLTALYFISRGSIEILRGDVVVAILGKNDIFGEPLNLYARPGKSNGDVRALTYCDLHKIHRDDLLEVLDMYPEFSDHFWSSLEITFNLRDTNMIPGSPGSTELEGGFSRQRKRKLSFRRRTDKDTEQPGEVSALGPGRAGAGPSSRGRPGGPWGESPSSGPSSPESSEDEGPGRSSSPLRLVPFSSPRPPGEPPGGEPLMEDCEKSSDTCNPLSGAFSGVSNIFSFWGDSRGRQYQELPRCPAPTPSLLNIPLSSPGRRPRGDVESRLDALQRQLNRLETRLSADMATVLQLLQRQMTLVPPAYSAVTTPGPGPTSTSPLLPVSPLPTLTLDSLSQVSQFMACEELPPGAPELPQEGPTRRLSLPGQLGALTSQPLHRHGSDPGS

Nc1c(-c2ccc(Br)cc2)cnc2ccnn12
remaining at 1 h [1]: < 5%

CS(=O)(=O)c1ccc(-c2cnc3ccnn3c2N)cc1
IC50 [2]: > 10 µM
remaining at 1 h [1]: 91%

CC(C)(C)c1ccc(-c2cnc3ccnn3c2N)cc1
remaining at 1 h [1]: 16%

Nc1c(-c2ccc(C(=O)O)cc2)cnc2ccnn12
IC50 [2]: > 10 µM
remaining at 1 h [1]: 100%

Nc1c(-c2ccc([C@H]3CC[C@H](CC(=O)O)CC3)cc2)cnc2ccnn12
half-life [3]: 4.6 h
IC50 [4]: 0.078 µM
concentration at 2 h [5]: 0.033 µg/mL
efflux ratio at 0.5 µM [6]: 1.4
Activity [7]: Non-toxic
bioavailability [8]: 91%
Activity (Mus musculus [9]): 90%
half-life [10]: 3.8 h
Papp at 0.5 µM [11]: 840 nm/s
AUC [12]: 151 µg·h/mL
Activity (Rattus norvegicus [13]): Non-toxic
Cmax [14]: 20.5 µg/mL
IC50 [15]: 0.008 µM
half-life [16]: 5.6 h
Activity (Mustela putorius furo): Non-toxic
Activity (Mus musculus [17]): Active
Activity (Canis familiaris [18]): Non-toxic
remaining at 1 h [19]: 99%
bioavailability [20]: 78%
IC50 [21]: > 300 µM
IC50 [22]: > 10 µM
clearance [23]: 0.1 L/h/kg
Activity (Mus musculus [24]): Dose-dependent effect
concentration at 2 h [25]: 3.1 µg/mL
Activity (Canis familiaris [26]): Non-toxic
Vd [27]: 0.3 L/kg
Activity (Mus musculus [28]): 40%
AUC (Canis familiaris [29]): 789 µg·h/mL
IC50 [2]: 0.008 µM
Cmax [30]: 9.3 µg/mL
Activity (Rattus norvegicus [31]): Non-toxic
AUC [32]: 130 µg·h/mL
Cmax [33]: 30.2 µg/mL
efflux ratio at 5 µM [34]: 1.1
Cmax [35]: 17.4 µg/mL
concentration at 2 h [36]: 0.36 µg/mL
AUC (Rattus norvegicus [37]): 3455 µg·h/mL
Activity (Mus musculus [38]): 60%
Vd [39]: 0.3 L/kg
clearance [40]: 0.05 L/h/kg
half-life [41]: 5.1 h
remaining at 1 h [1]: 97%

CC(C)c1ccc(-c2cnc3ccnn3c2N)cc1
remaining at 1 h [1]: < 5%

Nc1c(-c2cccc(Br)c2)cnc2ccnn12
IC50 [2]: > 10 µM
remaining at 1 h [1]: < 5%

Nc1c(-c2ccccc2Br)cnc2ccnn12
IC50 [2]: > 10 µM
remaining at 1 h [1]: 69%

Nc1c(-c2ccccc2)cnc2ccnn12
IC50 [2]: > 10 µM

CC(C)(C)c1ccc(-c2cncnc2N)cc1
remaining at 1 h [1]: 73%
